The source of these data is PubChem BioAssay (NCI).

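Cells were grown in 96-well plates and exposed to each compound for 48 hours at five concentrations; endpoints were interpolated linearly between bracketing concentrations, or set to the highest concentration if not reached. TGI: concentration producing complete growth inhibition.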 A value given as a limit tells only on which side of the number the result lay.

Assay in all cases: NCI-60 cell line screen, 48 h
The subject of experiment [1] is COLO 205 colon.
Experiment [2] has as its system EKVX NSCLC.
For experiment [3], the system named is HOP-92 NSCLC.
Experiment [4] deals with LOX IMVI melanoma.
The test system of experiment [5] is OVCAR-4 ovarian.
For experiment [6], the system named is SK-MEL-28 melanoma.
The subject of experiment [7] is UO-31 renal.

Turning to `O=C(OCc1ccccc1)N1CCN(C(=O)OCc2ccccc2)CCN(C(=O)OCc2ccccc2)CCN(C(=O)OCc2ccccc2)CCN(C(=O)OCc2ccccc2)CC1`, the TGI in experiment [1], in experiment [2], in experiment [3], in experiment [4], in experiment [5] and in experiment [6] was above 100 µM throughout. In addition, the TGI in experiment [7] is above 100 µM.
As for `Clc1ncc(Cl)c(Cl)n1`, the TGI was 3.3 µM in experiment [1]; 30.3 µM in experiment [2]; 3.43 µM in experiment [3]; 3.22 µM in experiment [4]; 3.53 µM in experiment [5]; 10.9 µM in experiment [6]. The TGI in experiment [7] stood at 7.17 µM.
For the molecule `CC1CCc2sc3[nH]c(=S)n(-c4ccccc4)c(=O)c3c2C1` (centres undefined), the TGI in experiment [1], in experiment [2], in experiment [3], in experiment [4], in experiment [5] and in experiment [6] was above 100 µM each time. The same molecule gave a TGI in experiment [7] above 100 µM.
`C[C@]1(O)O[C@@H]2OCC[C@@H]2C2=C1C(=O)c1ccccc1C2=O`: the TGI worked out at 53.9 µM in experiment [1]; 37.1 µM in experiment [2]; 31 µM in experiment [3]; 25.2 µM in experiment [4]; 28.4 µM in experiment [5]; 82.5 µM in experiment [6]. This molecule also returned a TGI in experiment [7] of 31.8 µM.
Turning to `COc1ccc(-c2cc(-c3cc(F)c(Cl)cc3Cl)on2)cc1OC`, the TGI is 92.3 µM in experiment [1]; above 100 µM in experiment [2]; above 100 µM in experiment [3]; above 100 µM in experiment [4]; above 100 µM in experiment [5]; above 100 µM in experiment [6]. Besides, in experiment [7], the TGI was above 100 µM.
With `COc1ccc2cc(C(=O)NCCCNC(=O)c3ccc4cc(OC)ccc4c3)ccc2c1`, the TGI in experiment [1] is above 100 µM; in experiment [2], above 100 µM; in experiment [3] it was 45.2 µM; in experiment [4], above 100 µM; in experiment [5], above 100 µM; in experiment [6] it was above 100 µM. In experiment [7], this molecule returned a TGI above 100 µM.
`O=[N+]([O-])c1ccc2c(c1)c(S(=O)(=O)O)cc1nonc12`: the TGI in experiment [1], in experiment [2], in experiment [3], in experiment [4], in experiment [5] and in experiment [6] was above 100 µM throughout. The same molecule registered a TGI in experiment [7] above 100 µM.
For the molecule `c1ccc(-c2cc(-c3cccs3)c(-c3cccs3)o2)cc1`, the TGI in experiment [1], in experiment [2], in experiment [3], in experiment [4], in experiment [5] and in experiment [6] was above 100 µM each time. In addition, the TGI in experiment [7] is above 100 µM.
For `Cn1c(=O)c2c(nc(Nc3ccc(Cl)cc3)n3c(=O)n(-c4ccccc4)c(=O)n23)n(C)c1=O`, the TGI in experiment [1], in experiment [2], in experiment [3], in experiment [4], in experiment [5] and in experiment [6] was above 100 µM each time. In addition, in experiment [7], the TGI was above 100 µM.
With `CC1(C)CCC(=O)NC1CC(=O)CC1NC(=O)CCC1(C)C` (centres undefined), the TGI in experiment [1], in experiment [2], in experiment [3], in experiment [4], in experiment [5] and in experiment [6] was above 100 µM in each case. The molecule also yielded a TGI in experiment [7] above 100 µM.
As for `Clc1nc(Cl)c(CBr)c(Cl)n1`, the TGI in experiment [1] turned out to be 20.9 µM; in experiment [2], 48.9 µM; in experiment [3], 5.07 µM; in experiment [4], 4.14 µM; in experiment [5], 19.7 µM; in experiment [6], 19.9 µM. Moreover, the TGI in experiment [7] came out at 9.01 µM.
Turning to `COc1cc2c(cc1OCCCC(=O)Nc1cc(C(=O)NCCCN(C)C)n(C)n1)N=CC1CCCN1C2=O` (centres undefined), the TGI in experiment [1] was above 23 µM; in experiment [2], above 62 µM; in experiment [3], 13.2 µM; in experiment [4], above 21.2 µM; in experiment [5] it was 14.1 µM; in experiment [6], 11.1 µM. The same molecule returned a TGI in experiment [7] of 24.3 µM.
For the molecule `CC(=O)OCC1=C(C)C[C@H]([C@@H](COC(C)=O)C2CCC3C4C[C@H]5O[C@]56CC=CC(=O)[C@]6(C)C4CC[C@@]32C)OC1=O` (some centres undefined), the TGI was 1 µM in experiment [1]; 1.36 µM in experiment [2]; 2.87 µM in experiment [3]; 0.552 µM in experiment [4]; 9.9 µM in experiment [5]; 1.19 µM in experiment [6]. The same molecule had a TGI in experiment [7] of 2.96 µM.
Consider `CC(=O)O[C@H]1C[C@H]2C(=S)Nc3ccccc3C(=S)N2C1`, for which the TGI in experiment [1], in experiment [2], in experiment [3], in experiment [4], in experiment [5] and in experiment [6] was above 100 µM each time. The molecule also registered a TGI in experiment [7] above 100 µM.
With `c1ccc2nc(CCC3CCCCN3)ccc2c1` (centres undefined), the TGI in experiment [1] was 31.5 µM; in experiment [2] it was above 100 µM; in experiment [3] it was above 100 µM; in experiment [4], above 100 µM; in experiment [5] it was above 100 µM; in experiment [6], above 100 µM. This molecule also showed a TGI in experiment [7] above 100 µM.
For `O=C(N/N=C\c1ccccc1)Nc1cccc2ccccc12`, the TGI in experiment [1] was above 100 µM; in experiment [2], above 100 µM; in experiment [3] it was above 100 µM; in experiment [4] it was above 100 µM; in experiment [5], above 100 µM; in experiment [6], 51.5 µM. In experiment [7], this molecule had a TGI above 100 µM.
As for `CC(=O)OCC1OC(O/C=C(\CN=[N+]=[N-])C(C)=O)C(OC(C)=O)C(OC(C)=O)C1OC(C)=O` (centres undefined), the TGI in experiment [1] is 3.9 µM; in experiment [2], 34.7 µM; in experiment [3], 56.6 µM; in experiment [4], 17.1 µM; in experiment [5] it was 43.1 µM; in experiment [6], 89.7 µM. The TGI in experiment [7] was 21.4 µM.
